Test results published in patent US20120251495A1, “PTERIN BASED THERAPIES FOR INFLAMMATORY CONDITIONS” (priority 2008, published 2012).

Assays:
[1] = system: spontaneous mammary gland tumors; details: C3H/HeN-MTV+ mice; Moheno, 2004; cited from earlier work
[2] = system: plasma cytokines; assay: Plasma cytokine levels by ELISA (LINCOplex), 1st experiment; type: in vivo, athymic nude (nu/nu) mice; details: for IL-10: limit of detection 24.6
Experimental: (§1) Cytokine levels in EDTA plasma from the mice in the 1st experiment were determined by ELISA assay at Alta Analytical Laboratories (San Diego, Calif.) using a LINCOplex Kit (Linco Research). Tryptophan (Trp) and kynurenine (Kyn) concentrations were measured from EDTA plasma samples by high pressure liquid chromatography (HPLC) using 3-nitro-L-tyrosine as the internal standard (Widner et al., 1997). To estimate IDO activity, the kynurenine to tryptophan ratio (Kyn/Trp) was calculated and expressed as μmol kynurenine/mmol tryptophan (Wirleitner, 2003). The values from five mice in the 1st experiment are not included in the summary statistics given in Table 1 for the following reasons. One mouse from each of the four treatment groups was used to test the effects of mega dosing, i.e., with (1:4 mol:mol) calcium pterin at 100 mg/kg/day after Day 60 of treatment, and are excluded. Also excluded was one mouse from the (1:4 mol:mol) calcium pterin (7 mg/kg/day) group which expired suddenly a few days before blood was collected. Cytokine measurements <3.2 pg/ml are reported as n.d. (not detectable) because the standard curves used in the ELISA assays were not calibrated below that level.
Cytokine levels in EDTA plasma from the mice in the 1st experiment were determined by ELISA assay at Alta Analytical Laboratories (San Diego, Calif.) using a LINCOplex Kit (Linco Research).
Cytokine levels in EDTA plasma from the mice in the 2nd experiment were measured at the UCSD Core Laboratory (San Diego, Calif.) using a multiplex assay kit for IL-1β, IL-2, IL-4, IL-5, IL-10, IL-12, IFN-γ, TNF-α and single ELISA kits for IL-6 and TGF-β1 by R&D Systems. EDTA plasma samples from two of the three ungavaged controls were lost due to handling error. For both the 1st and 2nd experiments, those measured cytokine values falling below the limits of detection were set to the higher assay limit for the purposes of the subsequent statistical analyses, and recorded as n.d. (not detectable) in Tables 1 through 3.

[3] = system: indoleamine 2,3-dioxygenase (IDO); assay: Plasma tryptophan and kynurenine by HPLC (IDO activity), 1st experiment; type: in vivo, athymic nude (nu/nu) mice; details: for Kynurenine / Tryptophan / Kyn/Trp: plasma; for Kynurenine / Tryptophan: HPLC; for Kyn/Trp: estimate of IDO activity
Experimental: as §1

[4] = system: hepatitis B virus (HBV); assay: Liver HBV DNA by quantitative PCR in HBV transgenic mice; type: in vivo; details: female HBV mice; 23.0 mg/(kg day), per os 14 days
[5] = system: hepatitis B core antigen (HBcAg); assay: Liver HBcAg assay in HBV transgenic mice; type: in vivo; details: 2.3 mg/(kg d)
Experimental: (§2) Experimental design. DCP was administered per os, once daily for 14 days to randomly assigned HBV transgenic mice at 23, 7.3, and 2.3 mg/(kg d). ADV was used as a positive control at 10 mg/(kg d) using the same treatment schedule and vehicle (0.4% CMC). On day 14, mice were euthanized to collect serum and liver samples to perform liver HBV DNA, liver core and serum HBe assays, serum cytokine/chemokine profiles, and IDO metabolite assays.
Liver HBcAg assay. Liver biopsies were processed for detection of hepatitis B core antigen (HBcAg) (Motley J D, Motter N E, Taro B, Lay M & Fairman J. Efficacy of cationic lipid-DNA complexes (CLDC) on hepatitis B virus in transgenic mice. Antiviral Res 2008; 79:71-79). Three different parameters were obtained from each tissue section. […] The first two parameters were obtained by counting cells surrounding central veins as follows: the total number of cells, the number of cells with stained nuclei, and the number of cells with stained cytoplasms. The identities of the samples were blinded to person counting. The stained nuclei counts or the stained cytoplasm counts were divided by the total cells. Three central vein areas were counted for each slide sample. For the third parameter, a field not in a central vein area was counted for the total number of stained nuclei. One-quarter of the field was counted. Three such fields were counted per liver section. The identity of the samples was blinded to the person reading the slides.

[6] = system: IDO; assay: Serum tryptophan and kynurenine in HBV transgenic mice; type: in vivo
Experimental: as §2
Tryptophan and kynurenine measurements. Tryptophan (Trp) and kynurenine (Kyn) measurements were carried out as previously described (Widner B, Werner E R, Schennach H, Wachter H & Fuchs D. Simultaneous measurement of serum tryptophan and kynurenine by HPLC. Clin Chem 1997; 43:2424-2426). Kyn/Trp ratios were calculated for each mouse as an estimate of IDO activity.

[7] = Table 4, 7 mg/kg/d, limit of detection 3.2
[8] = Table 4, 21 mg/kg/d, limit of detection 3.2
[9] = HBV mice generally, 2.3-23.0 mg/(kg day)

In the case of (1:4 mol:mol) calcium pterin [CaPterin], the “activity against spontaneous mammary gland tumors” value [1] is listed as “highly significant activity”, the IL10 ([2]; Table 1, 7 mg/kg/day, plasma) is listed as 41.9 ± 22.7 pg/mL and the IL-6 ([2]; Table 1, 7 mg/kg/day, plasma) is listed as 114.7 ± 43.2 pg/mL. The IL-12 ([2]; Table 1, 7 mg/kg/day, plasma) was 7.7 ± 4.4 pg/mL, the TNF-α ([2]; Table 1, 7 mg/kg/day, plasma) was 9.8 ± 1.5 pg/mL and the IL-1b ([2]; Table 1, 7 mg/kg/day, plasma at sacrifice, n.d. = <3.2 pg/ml) was 5.2 ± 2.0 pg/mL. The IFN-γ ([2]; Table 1, 7 mg/kg/day, plasma, n.d. = <3.2 pg/ml) was 4.7 ± 0.6 pg/mL, the IL10 ([2]; Table 1, 21 mg/kg/day, plasma) was 50.8 ± 32.3 pg/mL and the IL-6 ([2]; Table 1, 21 mg/kg/day, plasma) was 121.7 ± 78.1 pg/mL. It also gave an IL-12 ([2]; Table 1, 21 mg/kg/day, plasma) of 243.8 ± 237.8 pg/mL, a TNF-α ([2]; Table 1, 21 mg/kg/day, plasma) of 8.5 ± 1.6 pg/mL and an IL-1b ([2]; Table 1, 21 mg/kg/day, plasma at sacrifice, n.d. = <3.2 pg/ml) of 3.4 ± 0.2 pg/mL. The IFN-γ [2, 7] was 4.7 ± .8 pg/mL, the IL-12 [2, 7] was 7.7 ± 4.4 pg/mL and the TNF-α [2, 7] was 9.8 ± 1.5 pg/mL. The IL-1β ([2]; Table 4, 7 mg/kg/d, limit of detection 4.1) was 5.8 ± 1.7 pg/mL, the IL-10 ([2]; Table 4, 7 mg/kg/d) was 49.0 ± 17.0 pg/mL and the IL-6 ([2]; Table 4, 7 mg/kg/d, plasma at sacrifice, limit of detection 3.9) was 114.7 ± 43.2 pg/mL. The IL-12 [2, 8] was 243.8 ± 237.8 pg/mL, the TNF-α [2, 8] was 8.5 ± 1.6 pg/mL and the IL-10 ([2]; Table 4, 21 mg/kg/d) was 61.5 ± 27.3 pg/mL. For the same compound, the IL-6 ([2]; Table 4, 21 mg/kg/d, plasma at sacrifice, limit of detection 3.9) was 121.7 ± 78.1 pg/mL, the “plasma IFN-γ response to dosage (ACIP model)” value ([2]; stepwise regression) was “decrease” and the “plasma IL-6 response to dosage (ACIP model)” value ([2]; stepwise regression) was “decrease”. The “plasma IL-10 response to dosage (ACIP model)” value ([2]; stepwise regression) was “increase”, the Kynurenine ([3]; 7 mg/kg/day) was 1.2 ± 0.2 µM and the Tryptophan ([3]; 7 mg/kg/day) was 87.9 ± 14.6 µM. For the same compound, the Kyn/Trp ([3]; 7 mg/kg/day) was 14.1 ± 0.2 μmol/mmol, the Kynurenine ([3]; 21 mg/kg/day) was 1.8 ± 0.3 µM and the Tryptophan ([3]; 21 mg/kg/day) was 106.5 ± 7.8 µM. The Kyn/Trp ([3]; 21 mg/kg/day) was 17.5 ± 3.8 μmol/mmol and the “plasma kynurenine response to dosage (ACIP model)” value ([3]; stepwise regression) was “increase”.

For `Nc1nc([O-])c2nccnc2n1.Nc1nc([O-])c2nccnc2n1.[Ca+2]` [DCP, dipterinyl calcium pentahydrate], the “Log HBV DNA (PCR) versus controls” value [4] was “significant treatment decreases”, the “HBcAg Stained nuclei/total, Female levels (mean ± SEM)” value ([5]; female) was 0.36 ± 0.046 and the “HBcAg Stained nuclei/total, Male levels (mean ± SEM)” value ([5]; male) was 0.51 ± 0.041. The “serum Kyn” value [6, 9] was “did not affect”, the “serum Kyn/Trp” value [6, 9] was “did not affect” and the “serum tryptophan (Trp) versus controls” value ([6]; male HBV mice, 23.0 mg/(kg day)) was “significantly increased”.
